Like-named read-outs stand apart in the source and are kept apart here.
Columns and labels:
[1] = biological target: T1, alcohol dehydrogenase (ADH) (Saccharomyces cerevisiae, UniProt P00330); assay: ADH kinetic assay, spectrophotometric reduction of NAD+ (340 nm); assay type: biochemical, Bakers Yeast
T1 construct: 10 μl of ADH from Bakers Yeast; host or cells: bakers yeast
T1 sequence (P00330 1-348): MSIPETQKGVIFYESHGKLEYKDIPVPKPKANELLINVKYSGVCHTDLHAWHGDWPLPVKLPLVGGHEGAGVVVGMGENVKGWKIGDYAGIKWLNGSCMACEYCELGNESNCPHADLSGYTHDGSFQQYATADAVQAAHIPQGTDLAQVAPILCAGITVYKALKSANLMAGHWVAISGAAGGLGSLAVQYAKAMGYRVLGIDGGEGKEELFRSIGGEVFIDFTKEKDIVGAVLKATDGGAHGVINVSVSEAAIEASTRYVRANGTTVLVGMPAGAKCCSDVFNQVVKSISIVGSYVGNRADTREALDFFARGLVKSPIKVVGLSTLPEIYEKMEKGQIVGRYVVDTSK
Protocol: For ADH analysis, the compounds were screened using a kinetic protocol that spectrophotometrically evaluates reduction of NAD+.
Stock solutions of each of the reagents were prepared in the following concentrations. Dilutions of the stock solutions were prepared prior to running the assay in the concentrations indicated below.
The ADH reaction was monitored at 340 nm prior to and after addition of the inhibitor to detect background reaction with the inhibitor. Solutions of 100 μl of the inhibitors in DMSO were prepared to provide a final DMSO concentration of 5% of the total assay volume. These solutions were incubated for 6 minutes at 25° C. in a 990 μl of a solution containing 0.1 M HEPES, pH 8.0, 80 μM NAD+, and 130 mM of ethanol. The reaction was then initiated with 10 μl of ADH from Bakers Yeast ([…]; 1:400 dilution of 1.0 mg/ml). After the enzyme was added, the solution was mixed for 20 seconds, and the reaction was run for 10 minutes. After a 50 second lag, the samples were read in a Cary spectrophotometer at 340 nm. Reading of the samples was continued until 300 seconds. […] The substrate was kept at a level at least 10 times the Km. The final concentration of […] was about 2.5 mM.
Where only a simple read was desired, as in the case of NAD+ concentration determination, 13 μl (10 M stock) of ethanol was used to drive the reaction, and 10 μl of pure enzyme (1 mg/ml) was used. NAD+ was soluble at 2 mM, which allowed the concentration determination step to be skipped. In this situation, the procedure was as follows. All of the ingredients except for the enzyme were mixed together. The solution was mixed well and the absorbance at 340 nm read. The enzyme was added and read again at OD 340 after the absorbance stopped changing, generally 10 to 15 minutes after the enzyme was added.

[2] = biological target: 1-deoxy-D-xylulose-5-phosphate reductase (DOXPR) (Escherichia coli, UniProt P45568); assay: DOXPR kinetic assay, spectrophotometric oxidation of NADPH (340 nm); assay type: biochemical
Sequence of 1-deoxy-D-xylulose-5-phosphate reductase (DOXPR) (P45568 whole entry): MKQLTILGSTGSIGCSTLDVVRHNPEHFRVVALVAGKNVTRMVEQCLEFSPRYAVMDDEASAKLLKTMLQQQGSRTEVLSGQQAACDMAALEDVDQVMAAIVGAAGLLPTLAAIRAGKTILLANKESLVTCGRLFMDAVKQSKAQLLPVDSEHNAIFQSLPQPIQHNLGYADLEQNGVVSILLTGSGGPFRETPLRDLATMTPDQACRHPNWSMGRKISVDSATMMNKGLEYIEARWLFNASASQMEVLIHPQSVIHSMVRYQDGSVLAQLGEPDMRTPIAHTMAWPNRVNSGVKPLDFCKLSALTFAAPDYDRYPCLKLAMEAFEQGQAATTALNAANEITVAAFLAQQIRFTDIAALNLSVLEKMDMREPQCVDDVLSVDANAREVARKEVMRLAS
Protocol: For DOXPR analysis, the compounds were screened using a kinetic protocol that spectrophotometrically evaluates oxidation of NADPH.
(§1) Stock solutions of each of the reagents were prepared in the following concentrations. Dilutions of the stock solutions were prepared prior to running the assay in the concentrations indicated below. DOXPR was diluted in 10 mM HEPES at a pH of 7.4.
The DOXPR reaction was monitored at 340 nm prior to and after addition of the inhibitor to detect background reaction with the inhibitor. Solutions of the inhibitors in DMSO were prepared to provide a final DMSO concentration of 5% of the total assay volume. These solutions were incubated for 6 minutes at 25° C. in a 990 μl of a solution containing 0.1 M HEPES, pH 7.4, 1 mM MnCl2 1.15 mM DOXP, and 8 μM NADPH. The oxidation reaction was then initiated with 10 μl of DOXP reductoisomerase (10 μg/ml). After the enzyme was added, the solution was mixed for 20 seconds, and the reaction was run for 10 minutes. After a 50 second lag, the samples were read in a Cary spectrophotometer at 340 nm. Reading of the samples was continued until 300 seconds. Cuvette #1 contained the control reaction (no inhibitor), and cuvette #2 contained the positive control reaction in which Cibacron Blue at 10.32 μM was substituted for inhibitor to yield 70 to 80% inhibition. The substrate was kept at a level at least 10 times the Km.

[3] = biological target: dihydrodipicolinate reductase (DHPR) (Escherichia coli, UniProt P04036); assay: Screening of bi-ligands for DHPR (Example 25), kinetic assay at 340 nm; assay type: biochemical; settings: Cibacron Blue at 2.58 μM, Example 25; read-out: inhibition of DHPR, positive control
Sequence of dihydrodipicolinate reductase (DHPR) (P04036 whole entry): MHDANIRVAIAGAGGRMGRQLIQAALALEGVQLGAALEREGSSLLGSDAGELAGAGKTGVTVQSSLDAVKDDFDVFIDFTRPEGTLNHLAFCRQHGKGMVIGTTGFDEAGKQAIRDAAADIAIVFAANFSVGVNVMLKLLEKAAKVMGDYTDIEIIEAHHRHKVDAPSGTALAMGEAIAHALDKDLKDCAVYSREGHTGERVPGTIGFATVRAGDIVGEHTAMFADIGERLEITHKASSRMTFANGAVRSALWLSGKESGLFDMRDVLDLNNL
Protocol: Screening of Biligands for Binding to Dihydrodipicolinate Reductase (DHPR)
This example describes the screening of bi-ligands having common ligand mimics for binding activity to dihydrodipicolinate reductase (DHPR).
Bi-ligands were produced by the methods of Examples 16 to 18. The bi-ligands were screened for binding to DHPR.
as §1, with “Dilution of DHPR” for “DOXPR”, “prepared” for “diluted”, “7.4. DHPS was not diluted and was stored in eppindorf tubes.” for “7.4.”
The L-ASA solution was prepared in the following manner. 180 μM stock solution of ASA was prepared. 100 μl of the ASA stock was mixed with 150 μl of concentrated NaHCO3 and 375 μl of […]. For use in the assay, 28.8 mM L-ASA equal 625 μl of the solution. The L-ASA stock solution was kept at a temperature of −20° C. After dilution, the pH of the 28.8 mM solution was checked and maintained between 1 and 2.
First, the DHPS reaction was monitored at 340 nm prior to and after addition of the inhibitor to detect background reaction with the inhibitor. The solution for background detection was a 945 μl solution containing 0.1 HEPES (pH 7.8), 1 mM pyruvate, 6 μM NADPH, 40 μM L-ASA, and 7 μl of 1 mg/ml DHPS at 25° C. in the volumes provided above. The sample solution was then mixed and incubated for 10 minutes. Next, 500 nM solutions of the inhibitors and enough DMSO to provide a final DMSO concentration of 5% were added. The solution was mixed and incubated for an additional 6 minutes.
In DHPR samples, 5 μl of the diluted DHPR enzyme were added. The sample was mixed for 20 seconds and then the reaction was run for 10 minutes. After a 50 second lag, the samples were read in a Cary spectrophotometer at 340 nm. Reading of the samples was continued until 300 seconds. Cuvette #1 contained the control reaction (no inhibitor), and cuvette #2 contained the positive control reaction in which Cibacron Blue at 2.58 μM was substituted for inhibitor to yield 70 to 80% inhibition. The substrate and NADPH or NAHD were kept near their Km values.

[4] = common ligand mimics, Examples 23/24, read-out: IC50 for DOXPR

Work on `Nc1c(S(=O)(=O)O)cc(Nc2ccc(Nc3nc(Cl)nc(Nc4ccccc4S(=O)(=O)O)n3)c(S(=O)(=O)O)c2)c2c1C(=O)c1ccccc1C2=O` [Cibacron Blue, reference compound] yielded an inhibition at 15.5 µM ([1]; Cibacron Blue at 15.5 μM, read-out: inhibition of ADH, positive control) of 50 to 60%, an inhibition at 10.32 µM ([2]; Cibacron Blue at 10.32 μM, read-out: inhibition of DOXPR, positive control) of 70 to 80% and an inhibition at 2.58 µM [3] of 70 to 80%.
`COc1cc(C=C2SC(N)=NC2=O)ccc1O` [5-(4-hydroxy-3-methoxy-benzylidene)-2-imino-thiazolidin-4-one] gave an IC50 [1] greater than 100 µM and an IC50 [2] greater than 100 µM.
`N=C1NC(=O)C(=Cc2ccc(C(=O)O)cc2)S1` [4-(2-imino-4-oxo-thiazolidin-5-ylidenemethyl)-benzoic acid] was tested, and the IC50 [1] was greater than 100 µM, the “inhibition of ADH (in words)” value ([1]; Example 24 (FIG. 6)) was “no inhibition” and the IC50 [2, 4] was greater than 25 µM.
`N=C1NC(=O)C(=Cc2ccc(O)c([N+](=O)[O-])c2)S1` [5-(4-hydroxy-3-nitro-benzylidene)-2-imino-thiazolidin-4-one] gave an IC50 [1] greater than 150 µM and an IC50 [2] greater than 100 µM.
Compound `COc1cc(O)ccc1C=C1SC(=N)NC1=O` [5-(4-hydroxy-2-methoxy-benzylidene)-2-imino-thiazolidin-4-one] has an IC50 [2, 4] greater than 100 µM.
